Broadly, the melting point is the temperature, or range, at which the solid turns liquid. Regarding `O=[N+]([O-])c1cc(C(F)F)c(Nc2ncc(C(F)(F)F)cc2Cl)c([N+](=O)[O-])c1`, the melting point was determined as 90 °C.
The value for `c1c2c(cc3c1CC3)CC2` was 101 °C.
The value for `CN(C)C(=O)SCCCCOc1ccccc1` was 40.5 °C.
The value for `C=C(C)CCCCCCCC` was -51 °C; that for `CC(C)(C)OC(=O)CN=C(c1ccccc1)c1ccccc1` was 114 °C; that for `C[C@]1(O)C#CCCCCC#C[C@](C)(O)CC1` was 144 °C.
`O=C(C(=O)c1ccco1)c1ccco1` came in with a melting point of 164 °C.
To `COc1ccc(COC(C)=O)cc1` belongs 84 °C; to `O=C(Cl)c1ccc(-c2ncccn2)cc1`, 172 to 175 °C; to `C=C(C)C1CC=C(C(=O)O)CC1` (stereo unspecified), 129 to 135 °C.
To `Cn1nc(CO)cc1-c1ccco1` belongs 43 to 48 °C.
To `CC(C)(C)C1=NNC(=O)C1` belongs 210 °C; to `O=C(C[N+](=O)[O-])c1cccc(C(=O)C[N+](=O)[O-])c1`, 160 °C; to `CCCOCC(=Nc1ccc(Cl)cc1C(F)(F)F)n1ccnc1`, 63.5 °C.
In the case of `CCC(Cc1c(I)cc(I)c(O)c1I)C(=O)O` (stereo unspecified), the melting point was found to be 147 °C.
In turn, `O=c1oc2c3c4c(cc2c2c1CCC2)CCCN4CCC3` registered a melting point of 149 °C.
To `Cc1ccc2c(c1)/C(=N/NC(N)=O)CC2C` (stereo unspecified) belongs 227 °C; to `O=C1CCCC(=O)O1`, 56.3 °C.
As to `CSc1nc2ccc([N+](=O)[O-])cc2s1`, the melting point lay within 134 to 136 °C.
`Cc1cccc(Nc2ccccc2)c1` yielded a melting point of 30 °C.
To `O=c1[nH]c2ccccc2n1CCCCl` belongs 115 to 125 °C; to `N#CCc1ccccc1C#N`, 73 to 79 °C; to `NC(=O)c1ccccn1`, 106 °C.
Consider `CCCCCCCCCCCCCC(=O)Oc1ccc(N=Cc2cccnc2)cc1`, for which the melting point came to 82.7 °C.
`CSc1nsc(SC)c1C(N)=O` came in with a melting point of 214 to 216 °C.
To `CC1(C)OC2COC3(CO)OC(C)(C)OC3C2O1` (stereo unspecified) belongs 95.5 to 97.5 °C; to `O=C(CC(=O)C(F)(F)F)c1ccc2ccccc2c1`, 74 °C.
To `O=C(O)c1cc(-c2ccco2)[nH]n1` belongs 220 °C; to `CCCCCCCC(=O)c1ccccc1`, 22.8 °C.
Regarding `Cc1cc(C)n(N=Cc2ccc(F)cc2)c(=O)c1C#N`, the melting point lay in the range of 186 to 188 °C.
In turn, `Cn1nc(C=O)cc1-c1ccco1` had a melting point of 62 to 64 °C.
To `O=C(Nc1ccc(Cl)cc1)c1cc(Cl)cc(Cl)c1O` belongs 142 °C.
The value for `Nc1nc2cc3nc(N)c(-c4ccccc4)cc3cc2cc1-c1ccccc1` was 301 °C; that for `O=C(O)c1cccc(OC(F)(F)F)c1` was 89 °C.
`COc1cc(C=C[N+](=O)[O-])ccc1OCc1ccccc1` had a melting point of 123 °C.
The value for `O=C(O)C1c2ccccc2C(=O)N(Cc2ccc(F)cc2)C1c1ccncc1` (stereo unspecified) was 243 to 245 °C.
Regarding `O=Cc1ccccc1Cn1cncn1`, the melting point was 59 °C.
`OCc1ccc2ccccc2c1` registered a melting point of 81.3 °C.
The value for `CCOC(=O)C1=C(C)OC(N)=C(C#N)C1c1ccc2c(c1)CCO2` (stereo unspecified) was 160 to 166 °C; that for `CCN(CC)c1ccc2cc(-c3nc4ccccc4s3)c(=O)oc2c1` was 205 to 208 °C; that for `O=C(NC1Cc2ccccc21)c1ccccc1` (stereo unspecified) was 157 °C.
The compound `COc1ccc(-c2ccc(S(=O)(=O)NC(C(=O)O)C(C)C)cc2)cc1` (stereo unspecified) showed a melting point of 178 °C.
The value for `OCc1ccc(-c2cccs2)cc1` was 112 °C.
The value for `NC(CCCC(F)(F)F)C(=O)O` (stereo unspecified) was 272 to 274 °C.
For the compound `Brc1ccc(Br)s1`, the melting point is -6 °C.
For the compound `CCC(=O)c1ccc(F)c(C(F)(F)F)c1`, the melting point is 32 °C.
In the case of `Cc1cc(=O)oc2cc(OP(=O)(O)O)ccc12`, the melting point amounted to 210 °C.
The value for `Cc1cc(Br)ncc1I` was 51 °C; that for `N[C@@H](CCCCNC(=O)OCc1ccccc1)C(=O)O` was 259 °C.
To `CC12CCC3C(CCC4CC(=O)CCC43C)C1CCC2O` (stereo unspecified) belongs 181 °C.
In turn, `Cc1nnsc1C(=O)O` yielded a melting point of 185 °C.
`O=[N+]([O-])c1ccc(C=NNc2ccccc2)cc1`: the melting point is 166 °C.
For `NC(=O)C#CC#CC#CCO`, the melting point is 140 °C.
`CCOC(=O)C1=C(C)NC(=O)NC1c1cccc(Cl)c1Cl` (stereo unspecified): the melting point came to 243 °C.
To `NNC(=O)c1ccccc1F` belongs 73 °C; to `COc1cc(C(=O)c2ccc(C)cc2)c([N+](=O)[O-])cc1OC`, 110 °C; to `C(=Nc1ccccc1)c1ccccc1`, 54 °C.
The value for `Nc1ccnc(N)n1` was 143 to 148 °C.
`COc1ccc(CCO)cc1` had a melting point of 28 to 30 °C.
`O=C(NCc1ccc(S(=O)(=O)Cl)s1)c1ccc(Cl)cc1`: the melting point lay within 138 to 140 °C.
The value for `Ic1ccc(OCc2ccccc2)cc1` was 62 °C; that for `CC(=O)Nc1c(C(=O)Cc2c(C)cc(C)cc2C)oc2ccccc12` was 161 to 162 °C.
With `Cc1cc(Br)ncc1Br`, the melting point came out at 38 °C.
The value for `CC12CCC3C(C(=O)CC4CC(O)CCC43C)C1CCC2O` (stereo unspecified) was 198 °C; that for `CCOC(=O)C(C#N)=C(SC)Sc1ncccn1` was 103 to 105 °C; that for `N#Cc1cccc(C(N)=O)c1` was 223 °C.
Take `NC(=O)C1C2C=CC(C2)C1N` (stereo unspecified): the melting point fell in the range of 235 to 253 °C.
`CC12CCC(O)CC1CCC1C2C(=O)CC2(C)C1CCC2(O)C(=O)CO` (stereo unspecified): the melting point was determined as 213 °C.
To `Cn1ccnc1I` belongs 87 to 89 °C; to `Brc1ccc2nccn2c1`, 76 to 78 °C; to `CN1CCN(c2ccccc2N)CC1`, 101 to 102 °C.
The value for `CCOC(=O)[C@@H]1CC=CC[C@@H]1N` (relative stereo) was 99 to 103 °C.
As for `ClC1CCCCC1`, the melting point was -44 °C.
As to `COc1ccc(C2Nc3nc(C(F)(F)F)nn3C(N)=C2C#N)cc1` (stereo unspecified), the melting point is 211 °C.
To `Nc1ccc(-c2ccc(N)cc2)cc1` belongs 124 °C; to `Oc1cc(Cl)cnc1O`, 295 °C.
The compound `Cc1cc(I)ccc1N` yielded a melting point of 86 °C.
Take `CCCCCCCCCCCCCCCCCCCCCO`: the melting point was in the range of 68 to 71 °C.
As to `COc1c(OC)c2occc2c2oc(=O)ccc12`, the melting point is 119 °C.
The value for `c1ccc(P(CCCCCCP(c2ccccc2)c2ccccc2)c2ccccc2)cc1` was 127 °C; that for `O=[N+]([O-])c1cccc(-c2nnc3n2NC(c2ccco2)S3)c1` (stereo unspecified) was 190 °C.

Source of the values: a melting point compilation (Tetko et al.).
